ChEMBL document CHEMBL1201862, “PubChem BioAssay data set” (2004)
The source made the active and inactive calls.

Assays:
[1] = Luminescence Cell-Based Dose Confirmation HTS to Identify Activators of 5'UTR Stem-Loop Driven Alpha-Synuclein mRNA Translation in H4 Neuroglioblastoma Cells. [Related pubchem assays: 1829 (Project Summary), 1814 (Primary HTS)]; format: functional
[2] = Luminescence Cell-Based Dose Response HTS to Identify Activators of Luciferase Translation or Activity in H4 […] Cells. [Related pubchem assays: 1829 (Project Summary), 1814 (Primary HTS)]; format: functional
H4 = assay: Luminescence Cell-Based Dose Response HTS to Identify Activators of 5'UTR Stem-Loop Driven Prion Protein mRNA Translation in H4 Neuroglioblastoma Cells. [Related pubchem assays: 1829 (Project Summary), 1814 (Primary HTS)]; format: functional; conditions: Homo sapiens
CHO-K1 = assay: Counterscreen for antagonists of the orexin 1 receptor (OX1R; HCRTR1): Homogeneous time resolved fluorescence (HTRF)-based cell-based dose response assay to identify antagonists of the parental CHO-K1 cell line. [Related pubchem assays (depositor defined):AID434989, AID435008, AID463079, AID485270, AID492963, AID492964, AID492965, AID493232, AID504699, AID504701]; format: functional; conditions: Cricetulus griseus;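 further: potency for inhibition of ATP-stimulated IP1 production as antagonists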
[3] = Counterscreen for antagonists of the orexin 1 receptor (OX1R; HCRTR1): Fluorescence-based cell-based high throughput dose response assay to identify antagonists of the parental CHO cell line. [Related pubchem assays (depositor defined):AID434989, AID435008, AID463079, AID485270, AID492963, AID492964, AID492965, AID493232, AID504699, AID504701]; format: functional
[4] = biological target: T1, Orexin/Hypocretin receptor type 1 (Homo sapiens, UniProt O43613); assay: Homogeneous Time Resolved Fluorescence (HTRF)-based cell-based high throughput dose response assay for antagonists of the orexin 1 receptor (OX1R; HCRTR1). [Related pubchem assays (depositor defined):AID434989, AID435008, AID463079, AID485270, AID492963, AID492964, AID492965, AID493232, AID504717, AID504718]; format: functional
T1 sequence (O43613 whole entry): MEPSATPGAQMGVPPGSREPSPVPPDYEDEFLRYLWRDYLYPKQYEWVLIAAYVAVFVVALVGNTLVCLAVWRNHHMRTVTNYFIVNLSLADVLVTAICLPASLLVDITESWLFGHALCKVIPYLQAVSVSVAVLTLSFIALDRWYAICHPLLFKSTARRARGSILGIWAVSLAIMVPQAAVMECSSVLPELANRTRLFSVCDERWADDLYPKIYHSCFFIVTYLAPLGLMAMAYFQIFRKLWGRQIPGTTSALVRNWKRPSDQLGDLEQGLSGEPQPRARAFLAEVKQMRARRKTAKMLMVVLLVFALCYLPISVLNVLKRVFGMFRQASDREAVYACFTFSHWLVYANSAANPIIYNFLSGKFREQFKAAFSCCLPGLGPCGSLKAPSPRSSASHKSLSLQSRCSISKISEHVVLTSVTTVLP

[5] = biological target: T1, Orexin/Hypocretin receptor type 1; assay: Fluorescence-based cell-based high throughput dose response assay for antagonists of the orexin 1 receptor (OX1R; HCRTR1). [Related pubchem assays (depositor defined):AID434989, AID435008, AID463079, AID485270, AID492963, AID492964, AID492965, AID493232, AID504717, AID504718]; format: functional
Orexin receptor type 2 [6] = biological target: T2, Orexin receptor type 2 (Homo sapiens, UniProt O43614); assay: Counterscreen assay for antagonists of the orexin 1 receptor (OX1R; HCRTR1): Fluorescence-based cell-based dose response assay for antagonists of the orexin 2 receptor (OX2R; HCRTR2), run by assay provider.; format: functional
T2 sequence (O43614 whole entry): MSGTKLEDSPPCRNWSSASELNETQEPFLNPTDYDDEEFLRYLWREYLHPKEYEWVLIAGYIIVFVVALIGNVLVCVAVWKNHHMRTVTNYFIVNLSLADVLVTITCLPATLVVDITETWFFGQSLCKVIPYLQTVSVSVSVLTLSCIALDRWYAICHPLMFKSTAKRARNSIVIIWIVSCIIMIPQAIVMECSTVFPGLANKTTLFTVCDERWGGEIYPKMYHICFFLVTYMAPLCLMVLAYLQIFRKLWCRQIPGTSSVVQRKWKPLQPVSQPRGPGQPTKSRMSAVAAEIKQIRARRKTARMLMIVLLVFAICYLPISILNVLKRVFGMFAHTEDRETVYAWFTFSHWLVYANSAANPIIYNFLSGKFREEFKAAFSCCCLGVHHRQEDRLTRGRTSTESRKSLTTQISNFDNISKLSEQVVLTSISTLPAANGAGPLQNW

Orexin receptor type 2 [7] = biological target: T2, Orexin receptor type 2; assay: Counterscreen assay for antagonists of the orexin 1 receptor (OX1R; HCRTR1): Homogeneous Time Resolved Fluorescence (HTRF)-based cell-based dose response assay for antagonists of the orexin 2 receptor (OX2R; HCRTR2), run by assay provider.; format: functional
[8] = biological target: Ras and Rab interactor 1/Tyrosine-protein kinase ABL1 (Homo sapiens, UniProt P00519+Q13671); format: functional;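 further: biochemical TR-FRET dose-response test measuring inhibition of binding between Rin1 and Abl proteins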
Caspase-3 = biological target: T3, Caspase-3 (Homo sapiens, UniProt P42574); assay: caspase-3 inhibitors as off-family protease, SAR follow-up, selectivity assay for SENP protease inhibitor project, biochemical, luminescence, set 2 (AID 588599); format: functional
T3 sequence (P42574 whole entry): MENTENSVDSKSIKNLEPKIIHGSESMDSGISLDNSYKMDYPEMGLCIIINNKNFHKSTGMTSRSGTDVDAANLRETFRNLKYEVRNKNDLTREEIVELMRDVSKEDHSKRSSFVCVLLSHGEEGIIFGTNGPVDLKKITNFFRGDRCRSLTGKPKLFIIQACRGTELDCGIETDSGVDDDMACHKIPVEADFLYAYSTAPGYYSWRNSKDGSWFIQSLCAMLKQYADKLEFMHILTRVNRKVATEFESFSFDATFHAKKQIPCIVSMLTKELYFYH

[9] = biological target: T4, Sentrin-specific protease 8 (Homo sapiens, UniProt Q96LD8); assay: SENP8 protease inhibitors, SAR follow-up, biochemical, luminescence, set 2 (AID 588601); format: functional
T4 sequence (Q96LD8 whole entry): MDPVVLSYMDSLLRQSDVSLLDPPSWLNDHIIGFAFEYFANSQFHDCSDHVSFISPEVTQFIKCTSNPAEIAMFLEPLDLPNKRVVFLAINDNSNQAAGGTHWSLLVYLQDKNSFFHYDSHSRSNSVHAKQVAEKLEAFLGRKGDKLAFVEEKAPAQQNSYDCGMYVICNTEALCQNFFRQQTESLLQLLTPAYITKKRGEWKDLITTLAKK

[10] = biological target: T5, Sentrin-specific protease 7 (Homo sapiens, UniProt Q9BQF6); assay: SENP7 protease inhibitors, SAR follow-up, biochemical, luminescence, set 2 (AID 588600); format: functional
T5 sequence (Q9BQF6 whole entry): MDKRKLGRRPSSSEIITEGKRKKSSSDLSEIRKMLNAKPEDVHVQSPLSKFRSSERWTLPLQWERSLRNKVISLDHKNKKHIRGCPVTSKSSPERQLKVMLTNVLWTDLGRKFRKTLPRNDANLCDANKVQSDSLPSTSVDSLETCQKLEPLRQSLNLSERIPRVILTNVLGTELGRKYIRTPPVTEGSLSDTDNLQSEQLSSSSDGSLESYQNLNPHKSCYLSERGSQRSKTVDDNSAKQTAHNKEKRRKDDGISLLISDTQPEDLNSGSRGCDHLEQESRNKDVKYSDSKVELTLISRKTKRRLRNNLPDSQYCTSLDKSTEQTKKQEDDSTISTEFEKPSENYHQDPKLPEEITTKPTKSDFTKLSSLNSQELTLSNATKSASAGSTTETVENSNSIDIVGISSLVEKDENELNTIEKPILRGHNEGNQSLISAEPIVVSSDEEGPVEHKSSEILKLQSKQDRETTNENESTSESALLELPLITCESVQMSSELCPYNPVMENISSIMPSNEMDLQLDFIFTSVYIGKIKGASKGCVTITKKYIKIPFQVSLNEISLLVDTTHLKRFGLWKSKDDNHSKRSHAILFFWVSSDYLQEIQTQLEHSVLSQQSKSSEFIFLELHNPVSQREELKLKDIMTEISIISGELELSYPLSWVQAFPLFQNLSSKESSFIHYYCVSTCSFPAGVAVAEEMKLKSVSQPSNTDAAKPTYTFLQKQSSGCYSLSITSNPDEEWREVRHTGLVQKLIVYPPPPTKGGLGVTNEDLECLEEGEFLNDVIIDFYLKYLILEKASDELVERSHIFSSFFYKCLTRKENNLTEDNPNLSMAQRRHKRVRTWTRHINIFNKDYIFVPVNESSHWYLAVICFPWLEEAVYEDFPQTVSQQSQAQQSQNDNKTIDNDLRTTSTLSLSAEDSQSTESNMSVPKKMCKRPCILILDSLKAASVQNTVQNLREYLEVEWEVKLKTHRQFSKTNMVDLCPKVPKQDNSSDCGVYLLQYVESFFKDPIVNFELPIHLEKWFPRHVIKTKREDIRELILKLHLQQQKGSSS

[11] = biological target: T6, Sentrin-specific protease 6 (Homo sapiens, UniProt Q9GZR1); assay: SENP6 protease inhibitors, SAR follow-up, biochemical, luminescence, set 2 (AID 588598); format: functional
T6 sequence (Q9GZR1 whole entry): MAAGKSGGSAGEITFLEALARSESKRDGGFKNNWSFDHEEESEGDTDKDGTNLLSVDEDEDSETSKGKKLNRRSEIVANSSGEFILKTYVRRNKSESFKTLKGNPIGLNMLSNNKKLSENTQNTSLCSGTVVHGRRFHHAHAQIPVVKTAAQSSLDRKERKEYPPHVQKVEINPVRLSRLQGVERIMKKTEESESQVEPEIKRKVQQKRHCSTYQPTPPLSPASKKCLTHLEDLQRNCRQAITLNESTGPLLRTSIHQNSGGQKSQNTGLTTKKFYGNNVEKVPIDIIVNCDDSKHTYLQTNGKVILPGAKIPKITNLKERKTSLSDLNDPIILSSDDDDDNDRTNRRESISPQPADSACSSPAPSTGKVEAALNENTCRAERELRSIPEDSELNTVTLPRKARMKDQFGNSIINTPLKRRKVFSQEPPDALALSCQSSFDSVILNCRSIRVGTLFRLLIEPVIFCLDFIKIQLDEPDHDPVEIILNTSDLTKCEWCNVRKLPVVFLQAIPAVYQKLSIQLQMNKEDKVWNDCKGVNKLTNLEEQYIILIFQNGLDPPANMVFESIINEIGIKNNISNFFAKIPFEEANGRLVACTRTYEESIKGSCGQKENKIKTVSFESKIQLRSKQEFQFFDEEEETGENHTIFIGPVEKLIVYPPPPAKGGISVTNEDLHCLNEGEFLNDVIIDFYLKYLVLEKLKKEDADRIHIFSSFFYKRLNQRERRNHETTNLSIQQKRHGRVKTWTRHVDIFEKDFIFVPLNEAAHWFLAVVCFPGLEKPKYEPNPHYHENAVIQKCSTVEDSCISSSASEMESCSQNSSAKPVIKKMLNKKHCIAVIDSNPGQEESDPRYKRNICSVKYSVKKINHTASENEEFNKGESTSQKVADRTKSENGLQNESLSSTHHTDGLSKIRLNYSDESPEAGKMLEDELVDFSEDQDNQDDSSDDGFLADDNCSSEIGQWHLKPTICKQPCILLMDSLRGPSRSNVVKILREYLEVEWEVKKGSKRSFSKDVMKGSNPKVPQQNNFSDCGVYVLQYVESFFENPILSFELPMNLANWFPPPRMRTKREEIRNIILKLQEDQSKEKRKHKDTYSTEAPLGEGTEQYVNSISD

Melanocortin receptor 4 = Melanocortin receptor 4 (Homo sapiens, UniProt P32245); format: functional, cell-based;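 further: Cell-based assay with luminescence read-out, confirmatory dose-response testing for agonist activity of biased ligands at MC4R; human U2OS cells with tagged receptor and beta-arrestin; potency of agonists that increase receptor coupling to beta-arrestin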
Aurora kinase A = Aurora kinase A (Homo sapiens, UniProt O14965); format: functional;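 further: value from the Navigating the Kinome kinase panel profiling, panel entry STK6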
[12] = biological target: Vascular endothelial growth factor receptor 2 (Homo sapiens, UniProt P35968); format: functional
Aurora kinase B = Aurora kinase B (Homo sapiens, UniProt Q96GD4); format: functional
Chain of Aurora kinase B (Q96GD4 whole entry): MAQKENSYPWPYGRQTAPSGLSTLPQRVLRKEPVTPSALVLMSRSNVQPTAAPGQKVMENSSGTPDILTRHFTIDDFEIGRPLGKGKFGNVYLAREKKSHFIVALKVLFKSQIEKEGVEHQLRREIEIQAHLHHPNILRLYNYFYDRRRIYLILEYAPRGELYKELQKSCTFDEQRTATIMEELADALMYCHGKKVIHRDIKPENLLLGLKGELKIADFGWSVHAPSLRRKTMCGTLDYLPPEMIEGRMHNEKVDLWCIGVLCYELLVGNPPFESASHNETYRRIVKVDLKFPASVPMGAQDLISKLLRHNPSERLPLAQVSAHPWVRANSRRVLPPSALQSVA

Chain of Vascular endothelial growth factor receptor 2 (P35968 whole entry): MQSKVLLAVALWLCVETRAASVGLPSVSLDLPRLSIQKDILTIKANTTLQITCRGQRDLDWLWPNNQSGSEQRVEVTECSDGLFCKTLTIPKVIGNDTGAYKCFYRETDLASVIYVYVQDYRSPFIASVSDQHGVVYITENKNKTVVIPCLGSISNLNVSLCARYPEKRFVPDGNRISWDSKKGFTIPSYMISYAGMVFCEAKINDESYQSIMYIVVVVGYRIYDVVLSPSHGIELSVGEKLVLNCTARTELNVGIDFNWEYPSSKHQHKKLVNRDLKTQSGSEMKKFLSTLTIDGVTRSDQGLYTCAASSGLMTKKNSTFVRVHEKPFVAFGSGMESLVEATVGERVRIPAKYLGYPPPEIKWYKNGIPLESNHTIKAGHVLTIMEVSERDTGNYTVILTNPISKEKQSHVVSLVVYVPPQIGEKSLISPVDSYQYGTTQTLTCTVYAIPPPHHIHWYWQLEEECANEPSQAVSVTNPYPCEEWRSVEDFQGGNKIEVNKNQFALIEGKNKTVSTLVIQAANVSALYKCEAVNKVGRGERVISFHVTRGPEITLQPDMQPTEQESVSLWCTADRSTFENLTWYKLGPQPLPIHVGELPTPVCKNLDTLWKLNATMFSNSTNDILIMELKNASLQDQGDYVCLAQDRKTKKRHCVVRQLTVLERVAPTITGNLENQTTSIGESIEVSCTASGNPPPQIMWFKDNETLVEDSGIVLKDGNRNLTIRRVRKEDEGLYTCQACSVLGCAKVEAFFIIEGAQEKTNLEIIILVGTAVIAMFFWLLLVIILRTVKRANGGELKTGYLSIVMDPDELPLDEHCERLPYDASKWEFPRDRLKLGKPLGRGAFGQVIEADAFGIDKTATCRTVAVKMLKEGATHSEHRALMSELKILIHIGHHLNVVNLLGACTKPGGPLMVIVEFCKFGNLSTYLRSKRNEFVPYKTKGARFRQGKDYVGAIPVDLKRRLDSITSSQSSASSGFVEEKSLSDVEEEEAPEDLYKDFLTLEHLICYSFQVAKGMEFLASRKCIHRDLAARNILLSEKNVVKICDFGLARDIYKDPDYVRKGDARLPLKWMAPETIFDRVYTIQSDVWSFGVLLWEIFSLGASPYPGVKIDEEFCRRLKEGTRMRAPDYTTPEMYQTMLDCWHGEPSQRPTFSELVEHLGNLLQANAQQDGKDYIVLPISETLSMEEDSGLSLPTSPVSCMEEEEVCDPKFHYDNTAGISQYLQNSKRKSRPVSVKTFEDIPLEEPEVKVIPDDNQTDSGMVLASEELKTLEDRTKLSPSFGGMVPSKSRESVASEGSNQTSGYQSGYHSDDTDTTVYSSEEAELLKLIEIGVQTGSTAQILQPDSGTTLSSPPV
Chain of Aurora kinase A (O14965 whole entry): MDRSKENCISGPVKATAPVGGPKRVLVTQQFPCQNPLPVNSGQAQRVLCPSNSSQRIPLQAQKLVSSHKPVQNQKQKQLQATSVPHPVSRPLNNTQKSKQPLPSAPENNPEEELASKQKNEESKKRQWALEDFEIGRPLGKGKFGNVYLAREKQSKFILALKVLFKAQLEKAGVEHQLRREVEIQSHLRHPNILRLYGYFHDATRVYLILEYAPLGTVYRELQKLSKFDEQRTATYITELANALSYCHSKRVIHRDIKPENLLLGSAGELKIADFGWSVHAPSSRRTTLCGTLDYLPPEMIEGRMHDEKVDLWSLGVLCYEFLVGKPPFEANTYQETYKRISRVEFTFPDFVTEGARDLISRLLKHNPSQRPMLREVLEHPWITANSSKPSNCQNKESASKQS
Chain of Melanocortin receptor 4 (P32245 whole entry): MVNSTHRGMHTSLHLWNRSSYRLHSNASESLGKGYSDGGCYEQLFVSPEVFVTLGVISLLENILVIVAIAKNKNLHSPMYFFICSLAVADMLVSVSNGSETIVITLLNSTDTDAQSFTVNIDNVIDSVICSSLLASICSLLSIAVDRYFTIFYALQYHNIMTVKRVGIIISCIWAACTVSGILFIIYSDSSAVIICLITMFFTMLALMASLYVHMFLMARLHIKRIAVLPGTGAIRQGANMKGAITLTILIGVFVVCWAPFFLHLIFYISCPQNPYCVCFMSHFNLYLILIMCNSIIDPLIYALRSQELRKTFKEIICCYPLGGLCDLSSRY
Chain of Ras and Rab interactor 1/Tyrosine-protein kinase ABL1 (P00519 whole entry): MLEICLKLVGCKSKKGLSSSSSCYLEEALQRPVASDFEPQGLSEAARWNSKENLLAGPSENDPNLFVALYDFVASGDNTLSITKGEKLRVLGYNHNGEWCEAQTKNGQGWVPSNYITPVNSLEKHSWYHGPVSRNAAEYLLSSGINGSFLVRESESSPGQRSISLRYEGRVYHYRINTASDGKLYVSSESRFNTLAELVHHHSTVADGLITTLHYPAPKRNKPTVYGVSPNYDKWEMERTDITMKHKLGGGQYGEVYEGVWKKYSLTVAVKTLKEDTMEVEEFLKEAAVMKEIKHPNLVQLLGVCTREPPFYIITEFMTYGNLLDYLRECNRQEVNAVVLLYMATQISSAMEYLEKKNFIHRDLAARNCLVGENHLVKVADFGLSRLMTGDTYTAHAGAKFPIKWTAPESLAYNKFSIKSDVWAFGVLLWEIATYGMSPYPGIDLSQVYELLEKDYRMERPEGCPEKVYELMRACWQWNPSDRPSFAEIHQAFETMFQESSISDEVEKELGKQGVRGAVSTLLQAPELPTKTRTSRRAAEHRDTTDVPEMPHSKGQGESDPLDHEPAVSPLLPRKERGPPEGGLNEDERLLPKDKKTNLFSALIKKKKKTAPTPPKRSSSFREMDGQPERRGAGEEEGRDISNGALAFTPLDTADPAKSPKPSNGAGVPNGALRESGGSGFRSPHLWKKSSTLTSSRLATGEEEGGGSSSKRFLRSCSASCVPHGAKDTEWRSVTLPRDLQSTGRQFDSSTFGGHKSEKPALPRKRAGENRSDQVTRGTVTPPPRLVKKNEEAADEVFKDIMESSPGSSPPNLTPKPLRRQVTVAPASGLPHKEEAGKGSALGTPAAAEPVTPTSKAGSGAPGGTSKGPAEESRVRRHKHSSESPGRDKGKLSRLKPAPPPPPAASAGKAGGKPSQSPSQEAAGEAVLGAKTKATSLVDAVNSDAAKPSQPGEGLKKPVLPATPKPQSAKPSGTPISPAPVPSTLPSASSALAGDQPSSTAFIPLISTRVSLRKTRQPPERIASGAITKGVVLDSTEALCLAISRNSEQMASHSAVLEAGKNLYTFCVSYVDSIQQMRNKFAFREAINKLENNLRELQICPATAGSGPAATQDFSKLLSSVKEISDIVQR
Chain of Ras and Rab interactor 1/Tyrosine-protein kinase ABL1 (Q13671 whole entry): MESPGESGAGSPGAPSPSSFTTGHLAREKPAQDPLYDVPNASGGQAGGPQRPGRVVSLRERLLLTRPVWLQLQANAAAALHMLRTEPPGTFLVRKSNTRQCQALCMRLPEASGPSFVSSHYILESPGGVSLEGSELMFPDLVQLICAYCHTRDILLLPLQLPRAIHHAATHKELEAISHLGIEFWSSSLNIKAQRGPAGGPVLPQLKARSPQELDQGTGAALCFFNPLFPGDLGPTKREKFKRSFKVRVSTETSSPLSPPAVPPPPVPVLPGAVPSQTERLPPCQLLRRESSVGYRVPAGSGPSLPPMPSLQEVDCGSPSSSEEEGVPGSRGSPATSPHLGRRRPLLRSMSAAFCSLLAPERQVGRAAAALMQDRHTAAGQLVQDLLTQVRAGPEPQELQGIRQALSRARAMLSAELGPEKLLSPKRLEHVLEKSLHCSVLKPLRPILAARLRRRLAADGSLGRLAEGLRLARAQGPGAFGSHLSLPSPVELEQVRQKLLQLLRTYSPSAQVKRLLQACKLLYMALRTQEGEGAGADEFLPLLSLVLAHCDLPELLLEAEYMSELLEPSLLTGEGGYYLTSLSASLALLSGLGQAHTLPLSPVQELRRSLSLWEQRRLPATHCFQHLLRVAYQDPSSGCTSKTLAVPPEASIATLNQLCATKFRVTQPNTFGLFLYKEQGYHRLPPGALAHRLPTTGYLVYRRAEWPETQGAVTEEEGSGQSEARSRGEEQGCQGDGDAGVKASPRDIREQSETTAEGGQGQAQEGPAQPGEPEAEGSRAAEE

Cc1nc2c(-c3ccc(Cl)cc3)cnn2c2c1CCC2
EC50 [1]: > 120 µM (not active)
EC50 [2]: 11.1 µM (active)
EC50 (H4): 24.5 µM (active)
IC50 (CHO-K1): > 66.3 µM (inactive)
IC50 [3]: > 49.8 µM (inactive)
IC50 [4]: 4.59 µM (active)
IC50 [5]: 15 µM (inactive)
IC50 (Orexin receptor type 2 [6]): > 88.8 µM (inactive)
IC50 (Orexin receptor type 2 [7]): > 50 µM (inactive)

COC(=O)c1ccc(COC(=O)C2CCN(S(=O)(=O)c3ccc(C)c(C)c3)CC2)o1
IC50 [8]: 12.4 µM (inactive)

CCn1c2ccccc2c2cc(NC(=O)c3cccc(OC)c3)ccc21
EC50 [1]: 34.8 µM (active)
EC50 [2]: 56.6 µM (active)
EC50 (H4): 40.1 µM (active)
IC50 (CHO-K1): > 66.2 µM (inactive)
IC50 [3]: > 49.8 µM (inactive)
IC50 [4]: 0.2 µM (active)
IC50 [5]: 0.965 µM (active)
IC50 (Orexin receptor type 2 [6]): 77.6 µM (inactive)
IC50 (Orexin receptor type 2 [7]): > 50 µM (inactive)

COc1ccc(N2CCN(C(=O)C(=O)c3c(C)[nH]c4ccccc34)CC2)cc1
IC50 (Caspase-3): > 99 µM (inactive)
IC50 [9]: > 99 µM (inactive)
IC50 [10]: > 99 µM (inactive)
IC50 [11]: > 99 µM (inactive)

NC(Cc1ccc(C(F)(F)F)cc1)c1csc(NC(=O)Nc2ccccc2Cl)n1 (stereo not given)
EC50 (Melanocortin receptor 4): > 89.2 µM (inactive)

Cc1ccc(-c2c(C#N)c(N)nc3cc(C)nn23)cc1
Ki (Aurora kinase A): 0.501 µM (active)
Ki [12]: 3.98 µM (active)
Ki (Aurora kinase B): 0.1 µM (active)

CCCCN1CCN(c2ccc(-c3nc4c(C(N)=O)cccc4[nH]3)cn2)CC1
Ki (Aurora kinase A): 1.26 µM (active)
Ki [12]: > 5.01 µM (inactive)
Ki (Aurora kinase B): 0.0794 µM (active)
